Structures are written as SMILES.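 How tested: cells in 96-well plates exposed to compound for 48 hours at five concentrations. The concentration for full growth arrest is given as TGI.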

What all share (experiment): DTP human tumour cell line panel, 48 h
In test [1] the test system is CAKI-1 renal.
Test [2] deals with ACHN renal.
Test [3] concerns HOP-92 NSCLC.
In test [4] the test system is SN12C renal.
Test [5] has as its system KM12 colon.
Test [6] relates to SNB-75 CNS.
Test [7] deals with SK-MEL-2 melanoma.
The test system of test [8] is SF-295 CNS.
Test [9] relates to BT-549 breast.
Test [10] has as its system NCI-H226 lung.
Test [11] deals with SW-620 colon.
The test system of test [12] is HCC-2998 colon.
Test [13] has as its system DU-145 prostate.
Test [14] concerns SK-OV-3 ovarian.
Test [15] deals with T-47D breast.
Test [16] relates to NCI-H23 lung.
Test [17] relates to M14 melanoma.
The subject of test [18] is K-562 leukemia.
The subject of test [19] is EKVX NSCLC.

`O=C(O)CC12CC3CC(CC(O)(C3)C1)C2`: the concentration for total growth inhibition (TGI) in test [1], in test [2], in test [3], in test [4], in test [5] and in test [6] was greater than 100 µM each time. The TGI in test [7], in test [8], in test [9], in test [10], in [11] and in [12] was greater than 100 µM in each case. Besides, the TGI in test [13], in [14], in test [15], in test [16], in test [17] and in test [18] was greater than 100 µM each time. In test [19], the TGI is greater than 100 µM.

For `O=C(NCCCCCCCN1CCCCCCC1)C(C1CCCCC1)C1CCCCC1`, the TGI in test [1] is 20.6 µM; in test [2] it was 24.4 µM; in [3] it was 23.7 µM; in [4], 26.9 µM; in test [5], 27.5 µM; in test [6], 23.1 µM. Besides, the TGI stood at 22.2 µM in [7]; 24.6 µM in test [8]; 28.7 µM in test [9]; 23.5 µM in test [10]; 56.1 µM in test [11]; 7.59 µM in test [12]. For the same compound, the TGI in [13] was determined as 27.4 µM; in test [14], 23.6 µM; in test [15], 23 µM; in test [16], 28.5 µM; in test [17], 3.97 µM; in [18] it was 11.4 µM. Further, in [19], the TGI is 18.9 µM.

As to `O=C(/C=C(\Nc1ccccc1O)c1ccc(Br)cc1)C(Cl)(Cl)Cl`, the TGI in test [1] came out at 20.7 µM; in [2], 14.9 µM; in [3], 15.4 µM; in [4] it was 20 µM; in test [5], 13.9 µM; in [6], 26.8 µM. Moreover, the TGI in test [7] was found to be 20.7 µM; in [8], 20 µM; in test [9], 28.5 µM; in test [10] it was 26.5 µM; in [11], 16.5 µM; in [12], 5.88 µM. In addition, the TGI turned out to be 13.8 µM in test [13]; 16 µM in test [14]; 20.2 µM in test [15]; 26.1 µM in test [16]; 29.2 µM in test [17]; 32.5 µM in test [18]. In addition, in [19], the TGI came out at 13.9 µM.

`O=C1C=C(C2=C(C3=CC(=O)c4ccccc4C3=O)C(=O)c3ccccc3C2=O)C(=O)c2ccccc21`: the TGI in [1] was 11.7 µM; in test [2], 37.9 µM; in test [3] it was 18 µM; in test [4] it was 16.5 µM; in test [5], 30.8 µM; in test [6] it was 35.3 µM. For the same compound, the TGI in test [7] stood at 42.4 µM; in test [8], 34 µM; in test [9] it was 28.9 µM; in test [10], 29.9 µM; in test [11], 20.5 µM; in [12], 43.1 µM. In addition, the TGI in [13] was 16.5 µM; in test [14], 66.5 µM; in [15] it was 29.5 µM; in test [16], 19.7 µM; in test [17], 22.5 µM; in test [18], greater than 39.5 µM. Moreover, the TGI in test [19] amounted to 33.8 µM.

As for `O=c1[nH]c(=O)n(C2C(CO)OC(CO)C2O)cc1F` (configuration not stated), the TGI in [1], in test [2], in [3], in test [4], in test [5] and in test [6] was greater than 100 µM each time. Besides, the TGI in [7], in test [8], in [9], in test [10], in test [11] and in test [12] was greater than 100 µM each time. Further, the TGI in [13], in test [14], in [15], in test [16], in test [17] and in test [18] was greater than 100 µM in each case. The TGI in [19] is greater than 100 µM.

For the compound `CC(=O)NCCCCN(CCCNC(C)=O)C(=O)OCc1ccccc1`, the TGI in test [1], in [2], in [3], in test [4], in [5] and in [6] was greater than 100 µM in each case. In addition, the TGI in test [7], in test [8], in test [9], in [10], in test [11] and in [12] was greater than 100 µM throughout. For the same compound, the TGI in test [13], in [14], in test [15], in test [16], in test [17] and in test [18] was greater than 100 µM in each case. Moreover, the TGI in test [19] is greater than 100 µM.

In the case of `O=S(=O)(O)c1ccc2cc(N=Nc3c(O)ccc4ccccc34)ccc2c1`, the TGI in test [1], in [2], in [3], in test [4], in test [5] and in test [6] was greater than 100 µM each time. The TGI in test [7], in test [8], in [9], in test [10], in [11] and in test [12] was greater than 100 µM each time. The TGI in test [13], in test [14], in test [15], in [16], in test [17] and in test [18] was greater than 100 µM in each case. This compound had a TGI in test [19] greater than 100 µM.

Consider `Cc1ccc(S(=O)(=O)N2CCN(S(=O)(=O)c3ccc(C)cc3)CCN(S(=O)(=O)c3ccc(C)cc3)Cc3cc(Br)c(Br)cc3CN(S(=O)(=O)c3ccc(C)cc3)CC2)cc1`, for which the TGI in test [1] is greater than 100 µM; in test [2] it was greater than 100 µM; in [3], 92.4 µM; in test [4], greater than 100 µM; in [5] it was greater than 100 µM; in test [6] it was greater than 100 µM. The TGI in [8], in test [9], in test [10], in [11], in test [12] and in [13] was greater than 100 µM in each case. Further, the TGI in test [14] is greater than 100 µM; in test [15], greater than 100 µM; in [16] it was greater than 100 µM; in test [17], 43.2 µM; in test [18], greater than 100 µM; in test [19], greater than 100 µM.

On to `COc1ccc(NC(=O)C(=O)Cc2nc3ccc(C(=O)c4ccccc4)cc3[nH]c2=O)c([N+](=O)[O-])c1`, for which the TGI in test [1] is greater than 100 µM; in test [2] it was greater than 100 µM; in test [3] it was 74.4 µM; in [4], greater than 100 µM; in test [5] it was 64 µM; in [6] it was 90.2 µM. Besides, the TGI in [7] was greater than 100 µM; in test [8], greater than 100 µM; in [9], greater than 100 µM; in test [10], 39.8 µM; in test [11], 79.8 µM; in [12] it was greater than 100 µM. In addition, the concentration for total growth inhibition (TGI) in [13] is greater than 100 µM; in test [14], greater than 100 µM; in test [15], 68.9 µM; in test [16] it was 65.4 µM; in test [17], greater than 100 µM; in test [19], greater than 100 µM.

With `Cc1nc(N(C(C)C)C(C)C)c(C(C)C)o1`, the TGI in [1], in test [2], in test [3], in test [4], in [5] and in test [6] was greater than 100 µM throughout. Moreover, the TGI in test [8], in test [9], in [10], in [11], in test [12] and in [13] was greater than 100 µM throughout. Also, the total growth inhibition concentration (TGI) in test [14], in test [15], in test [16], in [17], in [18] and in test [19] was greater than 100 µM each time.

For `BrCc1ccc(CBr)c2c1-c1c(CBr)ccc3ccc(CBr)c-2c13`, the TGI in test [2], in [3], in [4], in test [5], in [6] and in [7] was greater than 100 µM each time. For the same compound, the TGI in [8], in test [9], in [10], in test [11], in [12] and in test [13] was greater than 100 µM each time. Further, the TGI in test [14], in test [15], in [17], in test [18] and in test [19] was greater than 100 µM throughout.

Regarding `FC(F)(F)c1cccnc1Sc1nc2ccccc2s1`, the TGI in test [1], in test [2], in test [3], in test [4], in [5] and in test [6] was greater than 100 µM throughout. Also, the TGI in test [7], in test [8], in test [9], in test [10], in test [11] and in [12] was greater than 100 µM throughout. Further, the TGI in [13], in [15], in [16], in test [17], in test [18] and in test [19] was greater than 100 µM each time.

As a reminder, the TGI is the concentration giving total growth inhibition. High values mean lower sensitivity of the cells, low ones greater sensitivity of the cells.

For the origin of these results see PubChem BioAssay (NCI).
